In the first test the target is T1, human TrkA (Homo sapiens, UniProt P04629).
T1 construct: purchased Lifetechnologies PV3144
T1 sequence (P04629 33-796): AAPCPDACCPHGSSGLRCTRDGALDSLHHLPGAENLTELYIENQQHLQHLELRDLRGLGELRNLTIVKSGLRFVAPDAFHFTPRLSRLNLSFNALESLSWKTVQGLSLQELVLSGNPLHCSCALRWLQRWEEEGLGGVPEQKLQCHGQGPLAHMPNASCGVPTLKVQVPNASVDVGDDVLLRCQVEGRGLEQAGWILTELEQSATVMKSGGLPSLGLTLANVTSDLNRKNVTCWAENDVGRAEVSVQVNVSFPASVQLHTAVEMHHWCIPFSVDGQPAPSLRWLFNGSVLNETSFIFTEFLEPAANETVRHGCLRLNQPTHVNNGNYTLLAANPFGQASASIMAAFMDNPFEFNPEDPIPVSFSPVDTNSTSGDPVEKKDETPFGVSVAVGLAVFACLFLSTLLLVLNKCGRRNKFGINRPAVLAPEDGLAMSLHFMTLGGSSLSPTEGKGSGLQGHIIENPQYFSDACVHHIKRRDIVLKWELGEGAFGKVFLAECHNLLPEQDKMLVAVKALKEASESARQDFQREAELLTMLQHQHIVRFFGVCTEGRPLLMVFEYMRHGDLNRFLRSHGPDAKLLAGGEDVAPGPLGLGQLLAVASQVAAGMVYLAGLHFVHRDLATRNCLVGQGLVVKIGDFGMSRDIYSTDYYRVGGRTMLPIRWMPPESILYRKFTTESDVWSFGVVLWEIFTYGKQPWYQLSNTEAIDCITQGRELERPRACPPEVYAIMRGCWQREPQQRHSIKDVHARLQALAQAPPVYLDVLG
Description: Test Example 2: Human TrkA Inhibition Assay.
Conditions: not given
It is filed as biochemical. Here is the method:
After the incubation for 90 min at room temperature, ten μL of termination buffer (100 mmol/L HEPES, 40 mmol/L ethylenediaminetetraacetic acid (EDTA), 10 mmol/L magnesium chloride, 0.003 vol % Brij-35, 0.004 vol % Tween20, 1 mmol/L DTT and 0.16 vol % Coating Reagent 3) was added in each well to stop the enzyme reaction. Fluorescent intensities (FI) of phosphorylated and non-phosphorylated fluorescent substrates were measured by LabChip EZReader II (Caliper LifeSciences, Inc.) and conversion ratio (CR) was calculated by the following formula-1. The CR in the well applied with DMSO alone was used as a negative control and the CR in the well without applying TrkA was used as a positive control. The inhibitory effect of each compound on TrkA phosphorylation was calculated by the following formula-2. CR (%)=(FI of phosphorylated substrate/(FI of phosphorylated substrate+FI of non-phosphorylated substrate))×100 (Formula-1) Inhibitory effect on TrkA phosphorylation (%)=(1−(CR in compound treated well−CR in positive control)/(CR in negative control−CR in positive control))×100. (Formula-2)
The compound `Cc1c(-c2cnn(C)c2)nn(-c2ccccc2)c1NC(=O)N[C@H]1[C@H](c2ccc(F)c(F)c2)[C@@H]2CC[C@H]1N2Cc1csnn1` (racemic) [Compound I-71] came in with an IC50 of 300 nM.

The test is the same for the next values; noted with them: Test Example 2; human TrkA 2.5 nmol/L, ATP 500 μmol/L, 90 min at room temperature; read-out: TrkA inhibitory activity IC50.
Take `Cc1c(-c2cnn(C)c2)nn(-c2ccccc2)c1NC(=O)N[C@@H]1CC2(CC(=O)C2)C[C@H]1c1ccccc1` (racemic) [Compound I-157]: the IC50 stood at 3300 nM.

For `COCCC1(C)C[C@@H](NC(=O)Nc2c(C)c(-c3cnn(C)c3)nn2-c2ccccc2)[C@H](c2ccccc2)C1` (some centres unmarked) [Compound I-132], the IC50 stood at 480 nM. In the case of `COCCN1C[C@@H](NC(=NS(C)(=O)=O)Nc2c(C)c(-c3cnn(C)c3)nn2-c2ccccc2)[C@H](c2ccccc2)C1` [Compound I-141], the IC50 is 1100 nM.

The same test, now with this note: human TrkA inhibition, Test Example 2; class symbols A/B/C; read-out: IC50_nM.
For `Cc1c(-c2cnn(C)c2)nn(-c2ccccc2)c1NC(=O)N[C@@H]1CN(CC(F)(F)F)C(=O)[C@H]1c1ccc(F)c(F)c1` [Compound I-74], the IC50 is greater than 1000 nM. On to `Cc1c(-c2cnn(C)c2)nn(-c2ccccc2)c1NC(=O)N[C@@H]1CN(CCNC(=O)OC(C)(C)C)C[C@H]1c1ccc(F)c(F)c1` [Compound I-31], for which the IC50 was greater than 1000 nM. `COCC(C(=O)N(C)C)N1C[C@@H](NC(=O)Nc2c(C)c(-c3cnn(C)c3)nn2-c2ccccc2)[C@H](c2ccc(F)c(F)c2)C1` (some centres unmarked) [Compound I-155]: the IC50 was greater than 1000 nM. On to `COCCN1C[C@@H](NC(=O)Nc2c(C)c(-c3cnn(C)c3)nn2-c2ccccc2)[C@H](c2ccc3c(c2)N(C(=O)OC(C)(C)C)CCO3)C1` (racemic) [Compound I-167], for which the IC50 is greater than 1000 nM. For the compound `Cc1c(-c2cnn(C)c2)nn(-c2ccccc2)c1NC(=O)N[C@@H]1CN(S(C)(=O)=O)C[C@H]1c1ccc(F)c(F)c1` [Compound I-45], the IC50 was greater than 1000 nM. Still for that read-out and setting: for `Cc1c(-c2cnn(C)c2)nn(-c2ccccc2)c1NC(=O)N[C@@H]1CN(CC2CCCCO2)C[C@H]1c1ccc(F)c(F)c1` (some centres unmarked) [Compound I-43] the value was greater than 1000 nM; for `COCCN1C[C@@H](NC(=O)Nc2c(C)c(-c3cnn(C)c3)nn2-c2ccccc2)[C@H](c2nc3ccccc3o2)C1` (racemic) [Compound I-156], greater than 1000 nM. For `Cc1c(-c2cnn(C)c2)nn(-c2ccccc2)c1NC(=O)N[C@@H]1CN(Cc2ccon2)C[C@H]1c1ccc(F)c(F)c1` [Compound I-98], the IC50 was less than 100 nM. On the same count and under the same terms, for `Cc1c(-c2cnn(C)c2)nn(-c2ccccc2)c1NC(=O)N[C@H]1[C@H](c2ccc(F)c(F)c2)[C@@H]2CC[C@H]1N2` (racemic) [Compound I-68] the value was greater than 1000 nM.

Consider `COCCC1C[C@@H](NC(=O)Nc2c(C)c(-c3cnn(C)c3)nn2-c2ccccc2)[C@H](c2ccccc2)C1` (some centres unmarked) [Compound I-88], for which the IC50 is less than 100 nM. The same measure, in the same setting: the value for `Cc1c(-c2cnn(C)c2)nn(-c2ccccc2)c1NC(=O)N[C@@H]1CN(Cc2ccccc2)[C@H]1c1ccccc1` (racemic) [Compound I-11] was greater than 1000 nM; that for `Cc1c(-c2cnn(C)c2)nn(-c2ccccc2)c1NC(=O)N[C@@H]1CN(CCNC(=O)C(F)(F)F)C[C@H]1c1ccc(F)c(F)c1` [Compound I-72] was greater than 1000 nM. Same read-out and setting: for `CC(=O)N1C[C@@H](NC(=O)Nc2c(C)c(-c3cnn(C)c3)nn2-c2ccccc2)[C@H](c2ccc(F)c(F)c2)C1` [Compound I-28] the value was greater than 1000 nM; for `COCCN1[C@@H]2CC[C@H]1[C@@H](c1ccc(F)c(F)c1)[C@@H]2NC(=O)Nc1c(C)c(-c2cnn(C)c2)nn1-c1ccccc1` (racemic) [Compound I-30], greater than 1000 nM; for `COCCN1C[C@@H](NC(=O)Nc2c(C)c(-c3cnn(C)c3)nn2-c2ccccc2)[C@H](c2cccc(-c3ccc(C#N)s3)c2)C1` (racemic) [Compound I-53], greater than 1000 nM. As to `COCC(=O)N1C[C@@H](NC(=O)Nc2c(C)c(-c3cnn(C)c3)nn2-c2ccccc2)[C@H](c2ccc(F)c(F)c2)C1` [Compound I-26], the IC50 was greater than 1000 nM. The same measure, in the same setting: the value for `COCC(C(N)=O)N1C[C@@H](NC(=O)Nc2c(C)c(-c3cnn(C)c3)nn2-c2ccccc2)[C@H](c2ccc(F)c(F)c2)C1` (some centres unmarked) [Compound I-133] was 100 to 1000 nM. On the same count and under the same terms, the value for `COCCN1C[C@@H](NC(=O)Nc2c(C)c(-c3cnn(C)c3)nn2-c2ccccc2)[C@H](c2cccc(-c3ccc(C(=O)OC)cc3)c2)C1` (racemic) [Compound I-54] was greater than 1000 nM; that for `Cc1c(-c2cnn(C)c2)nn(-c2ccccc2)c1NC(=O)N[C@@H]1C[C@@H](C)N(C(=O)OC(C)(C)C)[C@H]1c1ccc(F)c(F)c1` (racemic) [Compound I-76] was greater than 1000 nM; that for `COCCN1C[C@H](NC(=O)Nc2c(C)c(-c3cnn(C)c3)nn2-c2ccccc2)[C@H](c2ccc(F)c(F)c2)C1` (racemic) [Compound I-6] was greater than 1000 nM.

With `COCC(CNC(N)=O)N1C[C@@H](NC(=O)Nc2c(C)c(-c3cnn(C)c3)nn2-c2ccccc2)[C@H](c2ccc(F)c(F)c2)C1` (some centres unmarked) [Compound I-111], the IC50 is less than 100 nM. Still for that read-out and setting: the value for `Cc1c(-c2cnn(C)c2)nn(-c2ccccc2)c1NC(=O)NC1CCCCC1Cc1ccc(Cl)cc1` (centres unmarked) [Compound I-14] was greater than 1000 nM. In the case of `COCCN1C[C@@H](NC(=O)C(O)c2c(C)c(-c3cnn(C)c3)nn2-c2ccccc2)[C@H](c2ccc(F)c(F)c2)C1` (some centres unmarked) [Compound I-79], the IC50 fell in the range of 100 to 1000 nM.

For `COCCN1C[C@@H](N(C)C(=O)Nc2c(C)c(-c3cnn(C)c3)nn2-c2ccccc2)[C@H](c2ccccc2)C1` (racemic) [Compound I-17], the IC50 is greater than 1000 nM.

As to `CCC1C[C@@H](NC(=O)Nc2c(C)c(-c3cnn(C)c3)nn2-c2ccccc2)[C@H](c2ccccc2)C1` (some centres unmarked) [Compound I-103], the IC50 was less than 100 nM. As for `COCCN1C[C@@H](NC(=O)Nc2c(C)c(-c3cnn(C)c3)nn2-c2ccccc2)[C@H](c2cccc(-c3ccncc3)c2)C1` (racemic) [Compound I-60], the IC50 was greater than 1000 nM. Same read-out and setting: for `COCCN1C[C@@H](NC(=O)Nc2c(C)c(-c3cnn(C)c3)nn2-c2ccccc2)[C@H](c2ccc(C(=O)OC)cc2)C1` (racemic) [Compound I-20] the value was 100 to 1000 nM. The same measure, in the same setting: the value for `Cc1c(-c2cnn(C)c2)nn(-c2ccccc2)c1NC(=O)N[C@@H]1CN(C2COC(=O)C2)C[C@H]1c1ccc(F)c(F)c1` (some centres unmarked) [Compound I-152] was greater than 1000 nM; that for `Cc1c(-c2cnn(C)c2)nn(-c2ccccc2)c1NC(=O)N[C@@H]1CN(C=O)C[C@H]1c1ccc(F)c(F)c1` [Compound I-35] was greater than 1000 nM; that for `Cc1c(-c2cnn(C)c2)nn(-c2ccccc2)c1NC(=O)N[C@@H]1CCC[C@H]1c1ccccc1` (racemic) [Compound I-13] was greater than 1000 nM. Take `COCC(Cn1ccnc1)N1C[C@@H](NC(=O)Nc2c(C)c(-c3cnn(C)c3)nn2-c2ccccc2)[C@H](c2ccc(F)c(F)c2)C1` (some centres unmarked) [Compound I-127]: the IC50 was 100 to 1000 nM. `COCCN1C[C@@H](NC(=O)Nc2c(C)c(-c3cnn(C)c3)nn2-c2ccccc2)[C@H](c2cccc(-c3ccc(C#N)cc3)c2)C1` (racemic) [Compound I-50]: the IC50 was less than 100 nM. Take `COCCN1C[C@@H](NC(=O)Nc2c(C)c(-c3cnn(C)c3)nn2-c2ccccc2)[C@H](c2cccc(-c3cccc(C#N)c3)c2)C1` (racemic) [Compound I-52]: the IC50 fell in the range of 100 to 1000 nM.

Turning to `COCCN1C[C@@H](NC(=O)Nc2c(C)c(-c3cnn(C)c3)nn2-c2ccccc2)[C@H](c2cccc(-c3ccccc3)c2)C1` (racemic) [Compound I-48], the IC50 is less than 100 nM.

These data come from US10532985B2, “Heterocycle and carbocycle derivatives having TRKA inhibitory activity” (Shionogi & Co., Ltd., priority 2014, dated 2020).
